Assay results as given in patent US20240059691A1 (KALVISTA PHARMACEUTICALS LIMITED, priority 2020, published 2024).

Target: Plasma Kallikrein (Homo sapiens (Human), UniProt P03952)
Experiment: Determination of related protease inhibition: Plasma Kallikrein (fluorogenic substrate at Km)
Format: biochemical
Conditions: 25° C., read-out: IC50 (human PKal)
Procedure: Determination of Related Protease Inhibition
In vitro inhibition of related proteases was determined using an ([…] assay based on standard literature methods (see e.g. Shori et al., Biochem. Pharmacol., 1992, 43, 1209; Bouckaert et al., European Journal of Medicinal Chemistry 110 (2016) 181). Human serine protease enzymes Plasma Kallikrein, KLK1, FXa, Plasmin, Thrombin and Trypsin were assayed for enzymatic activity using an appropriate fluorogenic substrate at Km concentration, FXIa at fixed substrate concentration of 100 μM, and various concentrations of the test compound. Protease activity was measured by monitoring the accumulation of liberated fluorescence from the substrate over […]. The linear rate of fluorescence increase per minute was expressed as percentage (%) activity. IC50 values were calculated as the concentration of inhibitor giving 50% inhibition of the uninhibited enzyme activity (100%).

Plasma Kallikrein, sequence (P03952 391-638): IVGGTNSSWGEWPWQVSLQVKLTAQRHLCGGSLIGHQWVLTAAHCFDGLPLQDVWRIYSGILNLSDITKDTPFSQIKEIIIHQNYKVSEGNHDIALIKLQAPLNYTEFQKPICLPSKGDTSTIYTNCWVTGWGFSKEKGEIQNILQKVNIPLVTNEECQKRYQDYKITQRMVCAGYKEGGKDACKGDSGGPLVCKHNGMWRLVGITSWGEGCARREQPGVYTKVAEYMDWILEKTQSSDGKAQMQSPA
Plasma Kallikrein, sequence (P03952 20-390 partner): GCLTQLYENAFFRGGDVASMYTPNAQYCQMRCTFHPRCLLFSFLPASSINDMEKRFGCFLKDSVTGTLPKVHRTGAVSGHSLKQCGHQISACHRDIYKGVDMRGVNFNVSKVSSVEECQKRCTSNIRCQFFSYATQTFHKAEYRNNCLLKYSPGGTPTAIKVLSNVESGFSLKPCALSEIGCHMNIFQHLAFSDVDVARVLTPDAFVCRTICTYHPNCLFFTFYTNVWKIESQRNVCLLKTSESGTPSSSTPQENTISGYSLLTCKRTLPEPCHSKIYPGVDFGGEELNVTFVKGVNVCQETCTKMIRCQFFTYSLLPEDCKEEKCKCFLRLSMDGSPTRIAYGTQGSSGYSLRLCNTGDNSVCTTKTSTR

`CN1CCC(CNc2ccc(CNc3cnn(-c4cccc(Cl)c4)c3)cn2)CC1` [Example 1116, 5-(((1-(3-chlorophenyl)-1H-pyrazol-4-yl)amino)methyl)-N-((1-methylpiperidin-4-yl)methyl)pyridin-2-amine] and `CN1CCC(CNc2ccc(CNc3cnc4ccccc4c3)cn2)CC1` [Example 1183, N-((6-(((1-methylpiperidin-4-yl)methyl)amino)pyridin-3-yl)methyl)quinolin-3-amine] cannot be ordered by IC50: over 100 µM for the first, over 100 µM for the second.

`Nc1ncc(Cl)c2cc(NCc3ccc(N4CCn5nccc5C4)nc3)ccc12` [Example 1157, 4-chloro-N6-((6-(6,7-dihydropyrazolo[1,5-a]pyrazin-5(4H)-yl)pyridin-3-yl)methyl)isoquinoline-1,6-diamine] and `Nc1ncc(Cl)c2cc(NCc3ccnc(OCC4CCn5c(C(=O)O)cnc5C4)c3)ccc12` (centres unmarked) [Example 4453, 7-(((4-(((1-amino-4-chloroisoquinolin-6-yl)amino)methyl)pyridin-2-yl)oxy)methyl)-5,6,7,8-tetrahydroimidazo[1,2-a]pyridine-3-carboxylic acid] cannot be ordered by IC50: over 40 µM for the first, over 40 µM for the second.

`COc1ccc2ncc(NCc3ccc(NCC4CCN(C)CC4)nc3)cc2c1` [Example 1177, 6-methoxy-N-((6-(((1-methylpiperidin-4-yl)methyl)amino)pyridin-3-yl)methyl)quinolin-3-amine] and `COc1ccc2cc(NCc3ccc(NCC4CCN(C)CC4)nc3)ccc2c1` [Example 1180, 5-(((6-methoxynaphthalen-2-yl)amino)methyl)-N-((1-methylpiperidin-4-yl)methyl)pyridin-2-amine] cannot be ordered by IC50: over 100 µM for the first, over 100 µM for the second.

`COc1cccc2ccc(NCc3ccc(NCC4CCN(C)CC4)nc3)cc12` [Example 1178, 5-(((8-methoxynaphthalen-2-yl)amino)methyl)-N-((1-methylpiperidin-4-yl)methyl)pyridin-2-amine] and `COc1cccc2sc(NCc3ccc(NCC4CCN(C)CC4)nc3)nc12` [Example 1200, 4-methoxy-N-((6-(((1-methylpiperidin-4-yl)methyl)amino)pyridin-3-yl)methyl)benzo[d]thiazol-2-amine] cannot be ordered by IC50: over 100 µM for the first, over 100 µM for the second.

`CN1CCC(CNc2ccc(CNc3ccc(N(C)C)nn3)cn2)CC1` [Example 1186, N3,N3-dimethyl-N6-((6-(((1-methylpiperidin-4-yl)methyl)amino)pyridin-3-yl)methyl)pyridazine-3,6-diamine] and `CN1CCC(CNc2ccc(CNc3nc4ccccc4n3C)cn2)CC1` [Example 1192, 1-methyl-N-((6-(((1-methylpiperidin-4-yl)methyl)amino)pyridin-3-yl)methyl)-1H-benzo[d]imidazol-2-amine] cannot be ordered by IC50: over 100 µM for the first, over 100 µM for the second.

`CN1CCC(CNc2ccc(CNc3cnc4cccnn34)cn2)CC1` [Example 1187, N-((6-(((1-methylpiperidin-4-yl)methyl)amino)pyridin-3-yl)methyl)imidazo[1,2-b]pyridazin-3-amine] and `CN1CCC(CNc2ccc(CNc3cccn4ccnc34)cn2)CC1` [Example 1190, N-((6-(((1-methylpiperidin-4-yl)methyl)amino)pyridin-3-yl)methyl)imidazo[1,2-a]pyridin-8-amine] cannot be ordered by IC50: over 100 µM for the first, over 100 µM for the second.

`CN1CCC(CNc2ccc(CNc3ccc4[nH]cnc4c3F)cn2)CC1` [Example 1191, 4-fluoro-N-((6-(((1-methylpiperidin-4-yl)methyl)amino)pyridin-3-yl)methyl)-1H-benzo[d]imidazol-5-amine] and `CN1CCC(CNc2ccc(CNc3ccc(F)c4cnccc34)cn2)CC1` [Example 1214, 8-fluoro-N-((6-(((1-methylpiperidin-4-yl)methyl)amino)pyridin-3-yl)methyl)isoquinolin-5-amine] cannot be ordered by IC50: over 100 µM for the first, over 100 µM for the second.

`CN1CCC(CNc2ccc(CNc3cc4c(=O)[nH]ccn4c3)cn2)CC1` [Example 1199, 7-(((6-(((1-methylpiperidin-4-yl)methyl)amino)pyridin-3-yl)methyl)amino)pyrrolo[1,2-a]pyrazin-1(2H)-one] and `CN1CCC(CNc2ccc(CNc3ccn4ccnc4c3)cn2)CC1` [Example 1222, N-((6-(((1-methylpiperidin-4-yl)methyl)amino)pyridin-3-yl)methyl)imidazo[1,2-a]pyridin-7-amine] cannot be ordered by IC50: over 100 µM for the first, over 40 µM for the second.

`CN1CCC(CNc2ccc(CNc3cc(C(=O)O)c4cnccc4c3)cn2)CC1` [Example 1203, 6-(((6-(((1-methylpiperidin-4-yl)methyl)amino)pyridin-3-yl)methyl)amino)isoquinoline-8-carboxylic acid] and `CNC(=O)c1cc(NCc2ccc(NCC3CCN(C)CC3)nc2)cc2ccncc12` [Example 1210, N-methyl-6-(((6-(((1-methylpiperidin-4-yl)methyl)amino)pyridin-3-yl)methyl)amino)isoquinoline-8-carboxamide] cannot be ordered by IC50: over 100 µM for the first, over 100 µM for the second.

`CN1CCC(CNc2ccc(CNc3cc(C(=O)O)c4[nH]cc(Cl)c4c3)cn2)CC1` [Example 1204, 3-chloro-5-(((6-(((1-methylpiperidin-4-yl)methyl)amino)pyridin-3-yl)methyl)amino)-1H-indole-7-carboxylic acid] and `CNC(=O)c1cc(NCc2ccc(NCC3CCN(C)CC3)nc2)cc2c(Cl)c[nH]c12` [Example 1220, 3-chloro-N-methyl-5-(((6-(((1-methylpiperidin-4-yl)methyl)amino)pyridin-3-yl)methyl)amino)-1H-indole-7-carboxamide] cannot be ordered by IC50: over 100 µM for the first, over 40 µM for the second.

`CN1CCC(CNc2ccc(CNc3cnc4[nH]cc(C#N)c4c3)cn2)CC1` [Example 1212, 5-(((6-(((1-methylpiperidin-4-yl)methyl)amino)pyridin-3-yl)methyl)amino)-1H-pyrrolo[2,3-b]pyridine-3-carbonitrile] and `CN1CCC(CNc2ccc(CNc3ccnc4[nH]cc(C#N)c34)cn2)CC1` [Example 1221, 4-(((6-(((1-methylpiperidin-4-yl)methyl)amino)pyridin-3-yl)methyl)amino)-1H-pyrrolo[2,3-b]pyridine-3-carbonitrile] cannot be ordered by IC50: over 100 µM for the first, over 100 µM for the second.

`Cc1cc(NCc2ccc(NCC3CCN(C)CC3)nc2)c2cc[nH]c2c1` [Example 1215, 6-methyl-N-((6-(((1-methylpiperidin-4-yl)methyl)amino)pyridin-3-yl)methyl)-1H-indol-4-amine] and `Cc1ncc(NCc2ccc(NCC3CCN(C)CC3)nc2)c2cc[nH]c12` [Example 1244, 7-methyl-N-((6-(((1-methylpiperidin-4-yl)methyl)amino)pyridin-3-yl)methyl)-1H-pyrrolo[2,3-c]pyridin-4-amine] cannot be ordered by IC50: over 100 µM for the first, over 100 µM for the second.

`Cc1cc2c(NCc3ccc(NCC4CCN(C)CC4)nc3)ccnc2n1C` [Example 1216, 1,2-dimethyl-N-((6-(((1-methylpiperidin-4-yl)methyl)amino)pyridin-3-yl)methyl)-1H-pyrrolo[2,3-b]pyridin-4-amine] and `CN1CCC(CNc2ccc(CNc3ccnc4c3ccn4C)cn2)CC1` [Example 1225, 1-methyl-N-((6-(((1-methylpiperidin-4-yl)methyl)amino)pyridin-3-yl)methyl)-1H-pyrrolo[2,3-b]pyridin-4-amine] cannot be ordered by IC50: over 100 µM for the first, over 100 µM for the second.

`CN1CCC(CNc2ccc(CNc3ccnc4[nH]ncc34)cn2)CC1` [Example 1218, N-((6-(((1-methylpiperidin-4-yl)methyl)amino)pyridin-3-yl)methyl)-1H-pyrazolo[3,4-b]pyridin-4-amine] and `CN1CCC(CNc2ccc(CNc3ccnc4[nH]c(C(=O)O)cc34)cn2)CC1` [Example 1253, 4-(((6-(((1-methylpiperidin-4-yl)methyl)amino)pyridin-3-yl)methyl)amino)-1H-pyrrolo [2,3-b]pyridine-2-carboxylic acid] cannot be ordered by IC50: over 100 µM for the first, over 40 µM for the second.

`CN1CCC(CNc2ccc(CNc3ncnc4[nH]ccc34)cn2)CC1` [Example 1227, N-((6-(((1-methylpiperidin-4-yl)methyl)amino)pyridin-3-yl)methyl)-7H-pyrrolo[2,3-d]pyrimidin-4-amine] and `CN1CCC(CNc2ccc(CNc3cc(C(N)=O)nc4[nH]ccc34)cn2)CC1` [Example 1264, 4-(((6-(((1-methylpiperidin-4-yl)methyl)amino)pyridin-3-yl)methyl)amino)-1H-pyrrolo[2,3-b]pyridine-6-carboxamide] cannot be ordered by IC50: over 100 µM for the first, over 40 µM for the second.

`COC(=O)c1cc2c(NCc3ccc(NCC4CCN(C)CC4)nc3)ccnc2[nH]1` [Example 1247, methyl 4-(((6-(((1-methylpiperidin-4-yl)methyl)amino)pyridin-3-yl)methyl)amino)-1H-pyrrolo[2,3-b]pyridine-2-carboxylate] and `CN1CCC(CNc2ccc(CNc3ccnc4c3CC(C)(C)N4)cn2)CC1` [Example 1257, 2,2-dimethyl-N-((6-(((1-methylpiperidin-4-yl)methyl)amino)pyridin-3-yl)methyl)-2,3-dihydro-1H-pyrrolo[2,3-b]pyridin-4-amine] cannot be ordered by IC50: over 100 µM for the first, over 40 µM for the second.

`CN1CCC(CNc2ccc(CNc3ccc4cncc(N5CCC(F)(F)C5)c4c3)cn2)CC1` [Example 1260, 4-(3,3-difluoropyrrolidin-1-yl)-N-((6-(((1-methylpiperidin-4-yl)methyl)amino)pyridin-3-yl)methyl)isoquinolin-6-amine] and `CN1CCC(CNc2ccc(CNc3cc(C#N)nc4[nH]ccc34)cn2)CC1` [Example 1261, 4-(((6-(((1-methylpiperidin-4-yl)methyl)amino)pyridin-3-yl)methyl)amino)-1H-pyrrolo[2,3-b]pyridine-6-carbonitrile] cannot be ordered by IC50: over 40 µM for the first, over 40 µM for the second.

In the case of `CC(=O)c1cncc(NCc2ccnc(OCC3CCN(C)CC3)c2)c1` [Example 4455], the IC50 is reported as over 100 µM.
